Test results as given in patent US20210253572A1, “IMIDAZO[1,2-B]PYRIDAZINES AS TRK INHIBITORS” (BenevolentAl Bio Limited, priority 2018, published 2021).

Assays:
Format in all cases: biochemical
TrkA = target: T1, TrkA (Homo sapiens, UniProt P04629); experiment: HTRF KinEASE kinase assay, recombinant Human TRK enzyme, TrkA (NTRK1); settings: NTRK1 4 nM, read-out: TrkA Enz
T1 construct: purchased Invitrogen
Protocol: (§1) A suitable assay for determining the Trk inhibition activity of a compound is detailed herein below.
(§2) To determine the IC50 of small molecule compounds for the Human TRK receptors, HTRF® KinEASE™ kinase kits from Cisbio were used. Assays were carried out in low volume, black 384-well plates.
(§3) Recombinant Human TRK enzymes (Invitrogen) were incubated in the presence or absence of the compound (11-point dose response with FAC as 10 μM) for 30 minutes at 23° C. Kinase reaction was started by addition of ATP to a mixture containing the enzyme (NTRK1-4 nM, NTRK2-1 nM, NTRK3-10 nM) and substrate (1 μM). Kinase reaction was allowed to carry on for 10 to 45 minutes at 23° C. after which it was stopped by addition of the detection mix (supplied by vendor) containing EDTA, TK-Ab-labelled with Eu^3+-cryptate (1:200 dilutions) and Streptavidin-XL665 (250 nM). Assay plates were incubated in this detection mix for 60 minutes at 23° C. The resulting TR-FRET signal, calculated as the fluorescence ratio at 665/620 nm, was read on an Envision and was proportional to the level of phosphorylation of the peptide in the presence or absence of the compound. The uniformity of the plates were assured with Z′ value [1−{3*(SDHPE+SDZPE)/(ZPE−HPE)}]. The percent (%) effect i.e. Inhibition of compound was calculated in comparison to the signal in the positive (HPE) and negative control (ZPE) wells within each assay plate. The endpoint value % Inhibition for the Standard compound was evaluated in each experiment as a quality control measure. IC50 was determined by plotting compound inhibition at respective dose in Graphpad prism5 using four parameter logistic curve fit.

TrkB = target: T2, TrkB (Homo sapiens, UniProt Q16620); experiment: HTRF KinEASE kinase assay, recombinant Human TRK enzyme, TrkB (NTRK2); settings: NTRK2 1 nM, read-out: TrkB Enz
T2 construct: purchased Invitrogen
T2 sequence (Q16620 32-822): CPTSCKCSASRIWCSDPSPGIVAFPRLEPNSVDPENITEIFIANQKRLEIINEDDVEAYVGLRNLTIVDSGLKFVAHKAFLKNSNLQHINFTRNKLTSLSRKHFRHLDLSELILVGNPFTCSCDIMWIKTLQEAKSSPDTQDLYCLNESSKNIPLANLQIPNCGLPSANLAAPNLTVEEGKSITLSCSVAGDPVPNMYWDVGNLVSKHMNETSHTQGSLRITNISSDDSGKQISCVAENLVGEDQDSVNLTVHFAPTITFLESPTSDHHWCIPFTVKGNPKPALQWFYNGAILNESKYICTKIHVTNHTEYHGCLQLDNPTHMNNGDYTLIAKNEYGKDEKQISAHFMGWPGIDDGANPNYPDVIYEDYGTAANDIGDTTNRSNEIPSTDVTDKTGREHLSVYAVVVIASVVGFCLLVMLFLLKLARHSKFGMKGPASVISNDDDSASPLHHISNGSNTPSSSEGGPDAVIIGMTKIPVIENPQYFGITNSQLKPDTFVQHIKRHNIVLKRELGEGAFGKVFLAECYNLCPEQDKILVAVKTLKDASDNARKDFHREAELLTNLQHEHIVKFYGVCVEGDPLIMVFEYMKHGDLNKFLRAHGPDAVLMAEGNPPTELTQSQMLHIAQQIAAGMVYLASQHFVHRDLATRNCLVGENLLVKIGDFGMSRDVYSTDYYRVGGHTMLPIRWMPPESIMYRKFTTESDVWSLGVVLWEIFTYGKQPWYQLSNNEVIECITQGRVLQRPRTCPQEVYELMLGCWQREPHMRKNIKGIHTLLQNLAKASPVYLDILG
Protocol: as §1, §2, §3

TrkC = target: T3, TrkC (Homo sapiens, UniProt Q16288); experiment: HTRF KinEASE kinase assay, recombinant Human TRK enzyme, TrkC (NTRK3); settings: NTRK3 10 nM, read-out: TrkC Enz
T3 construct: purchased Invitrogen
T3 sequence (Q16288 32-839): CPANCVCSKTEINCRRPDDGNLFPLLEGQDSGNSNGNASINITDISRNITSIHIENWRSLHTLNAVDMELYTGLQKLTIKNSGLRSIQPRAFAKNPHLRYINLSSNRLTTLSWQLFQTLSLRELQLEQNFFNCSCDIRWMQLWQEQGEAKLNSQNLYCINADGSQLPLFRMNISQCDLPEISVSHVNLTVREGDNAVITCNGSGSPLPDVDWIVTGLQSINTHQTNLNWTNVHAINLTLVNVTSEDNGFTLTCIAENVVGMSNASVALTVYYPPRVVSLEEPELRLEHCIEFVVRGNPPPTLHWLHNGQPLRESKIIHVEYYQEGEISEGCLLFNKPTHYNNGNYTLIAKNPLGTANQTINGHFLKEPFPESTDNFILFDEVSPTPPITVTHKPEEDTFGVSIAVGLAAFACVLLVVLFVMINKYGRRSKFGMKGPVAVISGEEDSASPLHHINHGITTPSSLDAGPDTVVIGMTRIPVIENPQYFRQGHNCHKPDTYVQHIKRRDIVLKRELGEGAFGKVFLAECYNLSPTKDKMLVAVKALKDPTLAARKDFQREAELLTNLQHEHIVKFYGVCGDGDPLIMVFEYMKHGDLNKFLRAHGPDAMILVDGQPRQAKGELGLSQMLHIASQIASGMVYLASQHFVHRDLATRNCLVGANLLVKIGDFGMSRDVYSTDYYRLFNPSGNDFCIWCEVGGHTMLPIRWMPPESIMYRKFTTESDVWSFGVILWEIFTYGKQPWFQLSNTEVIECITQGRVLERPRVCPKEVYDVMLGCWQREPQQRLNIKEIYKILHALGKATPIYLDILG
Protocol: as §1, §2, §3

T1 sequence (P04629 33-796): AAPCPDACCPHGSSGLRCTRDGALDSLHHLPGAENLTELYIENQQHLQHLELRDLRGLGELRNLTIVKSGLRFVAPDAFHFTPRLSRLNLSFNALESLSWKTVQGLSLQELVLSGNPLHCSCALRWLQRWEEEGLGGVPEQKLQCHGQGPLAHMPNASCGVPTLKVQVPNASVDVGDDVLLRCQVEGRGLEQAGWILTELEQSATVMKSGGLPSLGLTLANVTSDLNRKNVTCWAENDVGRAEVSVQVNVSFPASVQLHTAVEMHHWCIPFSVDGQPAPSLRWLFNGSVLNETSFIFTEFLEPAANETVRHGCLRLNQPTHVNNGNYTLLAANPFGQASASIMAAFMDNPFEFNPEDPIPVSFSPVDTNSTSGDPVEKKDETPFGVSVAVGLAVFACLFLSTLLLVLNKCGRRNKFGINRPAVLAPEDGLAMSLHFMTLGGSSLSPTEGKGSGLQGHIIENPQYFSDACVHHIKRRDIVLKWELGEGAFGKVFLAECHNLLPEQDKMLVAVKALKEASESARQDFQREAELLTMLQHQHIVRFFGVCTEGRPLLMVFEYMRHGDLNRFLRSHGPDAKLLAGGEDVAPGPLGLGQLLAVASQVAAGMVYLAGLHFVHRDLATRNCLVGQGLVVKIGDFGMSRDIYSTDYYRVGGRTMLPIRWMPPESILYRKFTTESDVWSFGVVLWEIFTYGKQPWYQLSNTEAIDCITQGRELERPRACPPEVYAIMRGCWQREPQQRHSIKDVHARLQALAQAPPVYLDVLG

| SMILES | IC50 (TrkA) [nM] | IC50 (TrkB) [nM] | IC50 (TrkC) [nM] |
| --- | --- | --- | --- |
| CSc1cc(F)cc([C@H]2C[C@H](F)CN2c2ccc3ncc(C(=O)N[C@H]4CCN(Cc5cccc(O)c5)C4)n3n2)c1 [Example 17, 6-[(2R,4S)-4-fluoro-2-[3-fluoro-5-(methylsulfanyl)phenyl]pyrrolidin-1-yl]-N-[(3S)-1-[(3-hydroxyphenyl)methyl]pyrrolidin-3-yl]imidazo[1,2-b]pyridazine-3-carboxamide] | 2.41 | 5.04 | 4.62 |
| CSc1ccc(F)cc1[C@H]1CCCN1c1ccc2ncc(C(=O)NC3CN(Cc4ccc(F)c(O)c4)C3)n2n1 [Example 1, 6-[(2R)-2-[5-fluoro-2-(methylsulfanyl)phenyl]pyrrolidin-1-yl]-N-{1-[(4-fluoro-3-hydroxyphenyl)methyl]azetidin-3-yl}imidazo[1,2-b]pyridazine-3-carboxamide] | 1.77 | 2.06 | 2.81 |
| CSc1cc(F)cc([C@H]2C[C@H](F)CN2c2ccc3ncc(C(=O)NC4CCN(Cc5ccc(F)c(O)c5)CC4)n3n2)c1 [Example 21, 6-[(2R,4S)-4-fluoro-2-[3-fluoro-5-(methylsulfanyl)phenyl]pyrrolidin-1-yl]-N-{1-[(4-fluoro-3-hydroxyphenyl)methyl]piperidin-4-yl}imidazo[1,2-b]pyridazine-3-carboxamide] | 1.48 | 1.5 | 1.97 |
| CCCCC(=O)Oc1cccc(CN2CC[C@H](NC(=O)c3cnc4ccc(N5C[C@@H](F)C[C@@H]5c5cc(F)ccc5SC)nn34)C2)c1 [Example 9, 3-{[(3S)-3-{6-[(2R,4S)-4-fluoro-2-[5-fluoro-2-(methylsulfanyl)phenyl]pyrrolidin-1-yl]imidazo[1,2-b]pyridazine-3-amido}pyrrolidin-1-yl]methyl}phenyl Pentanoate] | 3.81 | 8.76 | 8.43 |
| CSc1cc(F)cc([C@H]2C[C@H](F)CN2c2ccn3ncc(C(=O)NC4CCN(Cc5cccc(O)c5)CC4)c3n2)c1 [Example 31, 5-[(2R,4S)-4-fluoro-2-[3-fluoro-5-(methylsulfanyl)phenyl]pyrrolidin-1-yl]-N-{1-[(3-hydroxyphenyl)methyl]piperidin-4-yl}pyrazolo[1,5-a]pyrimidine-3-carboxamide] | 1.38 | 0.86 | 1.38 |
| CSc1cc(F)cc([C@H]2C[C@H](F)CN2c2ccc3ncc(C(=O)NC4CN(Cc5ccc(F)c(O)c5)C4)n3n2)c1 [Example 19, 6-[(2R,4S)-4-fluoro-2-[3-fluoro-5-(methylsulfanyl)phenyl]pyrrolidin-1-yl]-N-{1-[(4-fluoro-3-hydroxyphenyl)methyl]azetidin-3-yl}imidazo[1,2-b]pyridazine-3-carboxamide] | 2.46 | 3.04 | 2.99 |
| CSc1ccc(F)cc1[C@H]1C[C@H](F)CN1c1ccc2ncc(C(=O)NCc3ccc(F)c(O)c3)n2n1 [Example 14, 6-[(2R,4S)-4-fluoro-2-[5-fluoro-2-(methylsulfanyl)phenyl]pyrrolidin-1-yl]-N-[(4-fluoro-3-hydroxyphenyl)methyl]imidazo[1,2-b]pyridazine-3-carboxamide] | 0.95 | 0.57 | 1.47 |
| CSc1cc(F)cc([C@H]2C[C@H](F)CN2c2ccc3ncc(C(=O)N[C@H]4CCN(Cc5cccc(OC(C)=O)c5)C4)n3n2)c1 [Example 28, 3-{[(3S)-3-{6-[(2R,4S)-4-fluoro-2-[3-fluoro-5-(methylsulfanyl)phenyl]pyrrolidin-1-yl]imidazo[1,2-b]pyridazine-3-amido}pyrrolidin-1-yl]methyl}phenyl Acetate] | 4.63 | 5.67 | 4.88 |
| CSc1ccc(F)cc1[C@H]1C[C@H](F)CN1c1ccc2ncc(C(=O)N[C@H]3CCN(Cc4cccc(O)c4)C3)n2n1 [Example 8, 6-[(2R,4S)-4-fluoro-2-[5-fluoro-2-(methylsulfanyl)phenyl]pyrrolidin-1-yl]-N-[(3S)-1-[(3-hydroxyphenyl)methyl]pyrrolidin-3-yl]imidazo[1,2-b]pyridazine-3-carboxamide] | 0.79 | 1.51 | 1.64 |
| COC(=O)c1cccc(CN2CC[C@H](NC(=O)c3cnc4ccc(N5C[C@@H](F)C[C@@H]5c5cc(F)cc(SC)c5)nn34)C2)c1 [Example 16, Methyl 3-{[(3S)-3-{6-[(2R,4S)-4-fluoro-2-[3-fluoro-5-(methylsulfanyl)phenyl]pyrrolidin-1-yl]imidazo[1,2-b]pyridazine-3-amido}pyrrolidin-1-yl]methyl}benzoate] | 1.73 | 4.54 | 3.28 |
| CSc1ccc(F)cc1[C@H]1CCCN1c1ccc2ncc(C(=O)N[C@H]3CCN(Cc4ccc(F)c(O)c4)C3)n2n1 [Example 2, 6-[(2R)-2-[5-fluoro-2-(methylsulfanyl)phenyl]pyrrolidin-1-yl]-N-[(3S)-1-[(4-fluoro-3-hydroxyphenyl)methyl]pyrrolidin-3-yl]imidazo[1,2-b]pyridazine-3-carboxamide] | 1.78 | 3.33 | 3.36 |
| CSc1ccc(F)cc1[C@H]1C[C@H](F)CN1c1ccc2ncc(C(=O)NC3CN(Cc4cccc(O)c4)C3)n2n1 [Example 5, 6-[(2R,4S)-4-fluoro-2-[5-fluoro-2-(methylsulfanyl)phenyl]pyrrolidin-1-yl]-N-{1-[(3-hydroxyphenyl)methyl]azetidin-3-yl}imidazo[1,2-b]pyridazine-3-carboxamide] | 1.9 | 1.19 | 2.11 |
| CSc1cc(F)cc([C@H]2CCCN2c2ccc3ncc(C(=O)N[C@H]4CCN(Cc5ccc(F)c(O)c5)C4)n3n2)c1 [Example 15, N-[(3S)-1-[(4-fluoro-3-hydroxyphenyl)methyl]pyrrolidin-3-yl]-6-[(2R)-2-[3-fluoro-5-(methylsulfanyl)phenyl]pyrrolidin-1-yl]imidazo[1,2-b]pyridazine-3-carboxamide] | 4.86 | 9.15 | 8.3 |
| CCCCOC(=O)c1cccc(CN2CC[C@H](NC(=O)c3cnc4ccc(N5C[C@@H](F)C[C@@H]5c5cc(F)ccc5SC)nn34)C2)c1 [Example 12, Butyl 3-{[(3S)-3-{6-[(2R,4S)-4-fluoro-2-[5-fluoro-2-(methylsulfanyl)phenyl]pyrrolidin-1-yl]imidazo[1,2-b]pyridazine-3-amido}pyrrolidin-1-yl]methyl}benzoate] | 3.82 | 10.3 | 10.9 |
| CSc1cc(F)cc([C@H]2C[C@H](F)CN2c2ccc3ncc(C(=O)NC4CCN(Cc5cccc(O)c5)CC4)n3n2)c1 [Example 22, 6-[(2R,4S)-4-fluoro-2-[3-fluoro-5-(methylsulfanyl)phenyl]pyrrolidin-1-yl]-N-{1-[(3-hydroxyphenyl)methyl]piperidin-4-yl}imidazo[1,2-b]pyridazine-3-carboxamide] | 1.4 | 2.01 | 2.13 |
| CSc1ccc(F)cc1[C@H]1C[C@H](F)CN1c1ccc2ncc(C(=O)NC3CCN(Cc4ccc(F)c(O)c4)CC3)n2n1 [Example 6, 6-[(2R,4S)-4-fluoro-2-[5-fluoro-2-(methylsulfanyl)phenyl]pyrrolidin-1-yl]-N-{1-[(4-fluoro-3-hydroxyphenyl)methyl]piperidin-4-yl}imidazo[1,2-b]pyridazine-3-carboxamide] | 1.47 | 0.81 | 1.56 |
